# In PMC6018403 (Frontiers in Pharmacology, 2018):
# Assay: Multi-component pharmacokinetic study of GQD, GQD-GC and single herb extracts in rats (plasma, LC/MS/MS)
# Format: in vivo, Sprague-Dawley rats
# Details: male, Sprague-Dawley, rat, plasma, po, 3.54 g/kg, HQ (Huang-Qin) group: rats, oral extract 3.54 g/kg, plasma; read-out: AUClast
# Protocol: Male Sprague-Dawley rats (220–250 g) were used for PK study, and the details were described in Supplemental Data. All procedures were in accordance with the National Institutes of Health Guide for the Care and Use of Laboratory Animals.
# For PK study of GQD and its component herbs, rats were randomly divided into six groups (n = 10 for each group) before oral administration.
# All blood samples were immediately centrifuged at 6,000 rpm (4°C) for 20 min to obtain plasma. The plasma samples were stored at −80°C.
# A Finnigan TSQ Quantum triple quadrupole mass spectrometer was connected to a Surveyor HPLC via ESI interface (ThermoFisher). High purity nitrogen was used as the sheath and auxiliary gas; Ultra-high purity argon was used as the collision gas (1.5 mTorr). Q1 and Q3 quadrupoles were set at unit resolution. […] The column temperature was 40°C. The mobile phase consisted of acetonitrile containing 2% (v/v) methanol (A) and water containing 0.1% (v/v) formic acid (B). […] An aliquot of 5 μL was injected for analysis. UV spectra were obtained by scanning from 200 to 400 nm. The mass spectrometer was operated in the (+)-ESI mode. The optimized parameters were as follows: sheath gas (N2), 50 arb; auxiliary gas (N2), 5 arb; spray voltage, 4.0 kV; capillary temperature, 330°C; collision energy, see Table S1. Analytes were detected in the selected reaction monitoring (SRM) mode. Data were processed by Xcalibur 2.0.7 software (ThermoFisher).
# LC/MS/MS calibration and quantitation data were processed with Xcalibur 2.0.7 software (ThermoFisher). The maximal plasma concentrations (Cmax) and their time of occurrence (Tmax) were obtained directly from the measured data. Other pharmacokinetic parameters were calculated by non-compartment or compartment models using WinNonlin® software (v6.1, Pharsight). Unless otherwise stated, results were expressed as the mean ± SD. Statistical significance in differences of the means was determined by Student's t–test, with a significance level of P < 0.05.
# Herbal materials and extracts.
# The four component herbs, Puerariae Lobatae Radix (Ge-Gen, GG), Scutellariae Radix (Huang-Qin, HQ), Coptidis Rhizoma (Huang-Lian, HL), and Glycyrrhizae Radix et Rhizoma Praeparata cum Melle (Gan-Cao, GC) were purchased from Tianheng Pharmacy. GQD was prepared by decocting the four component herbs […]
# pre-extraction of Ge-Gen using 200 mL of water for 0.5 h. The decoctions were combined, filtered, and concentrated in vacuum at 50 °C. GQD-GC was prepared using the same procedure, except that Gan-Cao was removed from the formula. Final concentration of the GQD-GC extract was equivalent to 1.0 g of the crude drugs per mL. For single herb extracts, the herbs were decocted in 8-fold volume of water for […]
# Final concentrations of the extracts were 1.0 g/mL for Ge-Gen, and 0.5 g/mL for Huang-Qin, Huang-Lian and […]
# For pharmacokinetic study, Male Sprague-Dawley rats (220-250 g) were obtained from the Laboratory Animal Center of Peking University Health Science Center. The […]
# The rats had free access to tap water and soy-free custom diet (Ke’ao Xieli Co.). All procedures were in accordance with the National Institutes of Health Guide for the Care and Use of Laboratory Animals […]
# Experimental details for the PK study
# 1. Preparation of internal standard solution, calibration standard solutions, and quality control solutions […]
# internal standard solution. Reference standard compounds were dissolved in the internal standard solution to prepare individual stock solutions (1.0 mg/mL). These […]
# each compound. The standard solution was then serially diluted to obtain calibration […]
# Quality control stock solutions were prepared at three concentration levels as high QC (HQC), middle QC (MQC), and low QC (LQC), based on linear ranges of the analytes.
# 2.1. Sample preparation for pharmacokinetic study
# The calibration standard and quality control solutions for pharmacokinetic study were […]
row,AUC(0-t),Structure (SMILES)
1,1170 ± 342 ng·h/mL,"COc1c(O)c(O[C@@H]2O[C@H](C(=O)O)[C@@H](O)[C@H](O)[C@H]2O)cc2oc(-c3ccccc3)cc(=O)c12 [Compound 38, lateriflorein 7-O-glucuronide]"

# Same assay, conditions: male, Sprague-Dawley, rat, plasma, po, 16.5 g/kg, GQD-GC group (GQD without Gan-Cao): rats, oral 16.5 g/kg, plasma; read-out: AUClast
row,AUC(0-t),Structure (SMILES)
1,599 ± 215 ng·h/mL,"COc1c(O)c(O[C@@H]2O[C@H](C(=O)O)[C@@H](O)[C@H](O)[C@H]2O)cc2oc(-c3ccccc3)cc(=O)c12 [Compound 38, lateriflorein 7-O-glucuronide]"

# Same assay, conditions: male, Sprague-Dawley, rat, plasma, po, 18.9 g/kg, GQD group: rats, oral GQD extract 18.9 g/kg, plasma; read-out: AUClast
row,AUC(0-t),Structure (SMILES)
1,700 ± 77 ng·h/mL,"COc1c(O)c(O[C@@H]2O[C@H](C(=O)O)[C@@H](O)[C@H](O)[C@H]2O)cc2oc(-c3ccccc3)cc(=O)c12 [Compound 38, lateriflorein 7-O-glucuronide]"

# Same assay, conditions: male, Sprague-Dawley, rat, plasma, po, 18.9 g/kg; GQD group: rats, oral GQD 18.9 g/kg (1.5-fold of clinical dosage), plasma; read-out: AUClast
row,AUC(0-t),Structure (SMILES)
1,> 700 ng·h/mL,"COc1c(O)c(O[C@@H]2O[C@H](C(=O)O)[C@@H](O)[C@H](O)[C@H]2O)cc2oc(-c3ccccc3)cc(=O)c12 [Compound 38, lateriflorein 7-O-glucuronide]"

# Same assay, conditions: male, Sprague-Dawley, rat; GQD group: rats, oral GQD extract 18.9 g/kg, plasma; read-out: Cmax
row,Cmax,Structure (SMILES)
1,48.8 ± 3.88 ng/mL,"COc1c(O)c(O[C@@H]2O[C@H](C(=O)O)[C@@H](O)[C@H](O)[C@H]2O)cc2oc(-c3ccccc3)cc(=O)c12 [Compound 38, lateriflorein 7-O-glucuronide]"

# Same assay, conditions: male, Sprague-Dawley, rat; GQD group: rats, oral GQD extract 18.9 g/kg, plasma; read-out: T1/2 (converted)
row,half-life,Structure (SMILES)
1,4.33 ± 3.23 h,"COc1c(O)c(O[C@@H]2O[C@H](C(=O)O)[C@@H](O)[C@H](O)[C@H]2O)cc2oc(-c3ccccc3)cc(=O)c12 [Compound 38, lateriflorein 7-O-glucuronide]"

# Same assay, conditions: male, Sprague-Dawley, rat; GQD group: rats, oral GQD extract 18.9 g/kg, plasma; read-out: Tmax
row,Tmax,Structure (SMILES)
1,0.44 ± 3.87 h,"COc1c(O)c(O[C@@H]2O[C@H](C(=O)O)[C@@H](O)[C@H](O)[C@H]2O)cc2oc(-c3ccccc3)cc(=O)c12 [Compound 38, lateriflorein 7-O-glucuronide]"

# Same assay, conditions: male, Sprague-Dawley, rat; GQD-GC group (GQD without Gan-Cao): rats, oral 16.5 g/kg, plasma; read-out: Cmax
row,Cmax,Structure (SMILES)
1,59.4 ± 5.34 ng/mL,"COc1c(O)c(O[C@@H]2O[C@H](C(=O)O)[C@@H](O)[C@H](O)[C@H]2O)cc2oc(-c3ccccc3)cc(=O)c12 [Compound 38, lateriflorein 7-O-glucuronide]"

# Same assay, conditions: male, Sprague-Dawley, rat; GQD-GC group (GQD without Gan-Cao): rats, oral 16.5 g/kg, plasma; read-out: T1/2 (converted)
row,half-life,Structure (SMILES)
1,2.85 ± 0.54 h,"COc1c(O)c(O[C@@H]2O[C@H](C(=O)O)[C@@H](O)[C@H](O)[C@H]2O)cc2oc(-c3ccccc3)cc(=O)c12 [Compound 38, lateriflorein 7-O-glucuronide]"

# Same assay, conditions: male, Sprague-Dawley, rat; GQD-GC group (GQD without Gan-Cao): rats, oral 16.5 g/kg, plasma; read-out: Tmax
row,Tmax,Structure (SMILES)
1,0.34 ± 0.07 h,"COc1c(O)c(O[C@@H]2O[C@H](C(=O)O)[C@@H](O)[C@H](O)[C@H]2O)cc2oc(-c3ccccc3)cc(=O)c12 [Compound 38, lateriflorein 7-O-glucuronide]"

# Same assay, conditions: male, Sprague-Dawley, rat; HQ (Huang-Qin) group: rats, oral extract 3.54 g/kg, plasma; read-out: Cmax
row,Cmax,Structure (SMILES)
1,213 ± 34.3 ng/mL,"COc1c(O)c(O[C@@H]2O[C@H](C(=O)O)[C@@H](O)[C@H](O)[C@H]2O)cc2oc(-c3ccccc3)cc(=O)c12 [Compound 38, lateriflorein 7-O-glucuronide]"

# Same assay, conditions: male, Sprague-Dawley, rat; HQ (Huang-Qin) group: rats, oral extract 3.54 g/kg, plasma; read-out: T1/2 (converted)
row,half-life,Structure (SMILES)
1,1.58 ± 0.14 h,"COc1c(O)c(O[C@@H]2O[C@H](C(=O)O)[C@@H](O)[C@H](O)[C@H]2O)cc2oc(-c3ccccc3)cc(=O)c12 [Compound 38, lateriflorein 7-O-glucuronide]"

# Same assay, conditions: male, Sprague-Dawley, rat; HQ (Huang-Qin) group: rats, oral extract 3.54 g/kg, plasma; read-out: Tmax
row,Tmax,Structure (SMILES)
1,0.31 ± 0.03 h,"COc1c(O)c(O[C@@H]2O[C@H](C(=O)O)[C@@H](O)[C@H](O)[C@H]2O)cc2oc(-c3ccccc3)cc(=O)c12 [Compound 38, lateriflorein 7-O-glucuronide]"
